Here are results for 7 molecules from US6849728B1, “GLUT10: a glucose transporter in the type 2 diabetes linked region of chromosome 20Q12-13.1” (Wake Forest University Health Sciences, priority 2000, dated 2005).

In one series the target is T1, human GLUT10 (Homo sapiens, UniProt O95528).
T1 construct: A full-length GLUT10 cDNA was cloned into the expression vector pCMV-Tag4a (Stratagene); expressed in transfected cells; host or cells: Xenopus laevis oocytes injected with capped mRNA
T1 sequence (O95528 1-541): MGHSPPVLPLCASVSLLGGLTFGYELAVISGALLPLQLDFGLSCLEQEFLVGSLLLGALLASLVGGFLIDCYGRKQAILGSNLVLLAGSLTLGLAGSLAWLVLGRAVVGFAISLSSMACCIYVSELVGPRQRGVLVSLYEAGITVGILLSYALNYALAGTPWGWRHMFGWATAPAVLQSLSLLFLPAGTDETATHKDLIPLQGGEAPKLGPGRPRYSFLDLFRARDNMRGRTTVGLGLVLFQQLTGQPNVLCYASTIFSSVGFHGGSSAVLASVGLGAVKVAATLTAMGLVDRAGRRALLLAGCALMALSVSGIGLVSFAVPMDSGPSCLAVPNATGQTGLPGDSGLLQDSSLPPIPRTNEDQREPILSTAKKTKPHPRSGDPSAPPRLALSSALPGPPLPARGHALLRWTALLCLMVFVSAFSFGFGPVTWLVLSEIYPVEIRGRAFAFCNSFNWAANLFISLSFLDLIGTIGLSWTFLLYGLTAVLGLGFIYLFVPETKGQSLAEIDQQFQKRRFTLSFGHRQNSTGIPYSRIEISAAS
The series can be described thus: 2-DOG uptake in Xenopus oocytes injected with GLUT10 RNA. Conditions: for effect of competitors on [3H]2-DOG uptake: 100-fold excess: 25 mM competitor. It is filed as cell-based. The source says: (§1) Material and Methods. A full-length GLUT10 cDNA was cloned into the expression vector pCMV-Tag4a (Stratagene). A PCR-based strategy employing Pfu polymerase was used for site-directed mutagenesis to generate the GLUT10 single nucleotide polymorpisms. The PCR products were digested with Eco RI, subcloned into pCMV-Tag4a, and the complete insert was sequenced to confirm the identity of the A206T and A287T GLUT10 glucose transporter cDNAs. The pcDNA3.1/GS plasmids expressing the full-length GLUT3 and GLUT4 cDNA were purchased from Invitrogen Corporation. Capped mRNA was generated using the mMESSAGE mMACHINE™ transcription kit (Ambion Inc).
Adult female Xenopus laevis were obtained from Xenopus Express (Homosassa, Fla.) and housed at 17-19° C. on a twelve-hour light/dark cycle. Stage V-VI oocytes were removed from anesthetized frogs and placed in isolation media (108 mM NaCl, 1 mM EDTA, 2 mM KCl, 10 mM HEPES, pH 7.5). The oocyte follicular layer was removed by immersion in 0.5 mg/ml collagenase buffer (83 mM NaCl, 2 mM KCl, 1 mM MgCl2, and 5 mM HEPES, pH 7.5). Isolated oocytes were maintained in modified Barth's saline (MBS; 88 mM NaCl, 1 mM KCl, 10 mM HEPES, 0.82 mM MgSO4, 2.4 mM NaHCO3, 0.91 mM CaCl2, and 0.33 mM Ca(NO3)2, pH 7.5). Visually healthy oocytes were injected with 30 nl of either a mRNA solution (1.0 μg/μl) or sterile water at the interface between the animal and vegetal poles. Individual oocytes were placed in 96-well microtiter plates (Costar Corporation) containing MBS plus 2 mM sodium pyruvate, 0.5 mM theophylline, 10 U/ml penicillin, 10 mg/l streptomycin and 50 mg/] gentamycin (Sigma) at 22° C.
DOG (final specific activity=0.5 Ci/mmol) (NEN Life Science Products, Inc.; American Radiochemical Company). Competitors, inhibitors, or insulin were added to the incubation as indicated. Uptake was terminated by removal of the radioactive solution and three 500 μl washes with ice-cold MBS containing 0.1 mM phloretin (Sigma). Pools of oocytes were dissolved in 10% SDS, mixed with scintillation fluid, and internalized radioactivity was measured by scintillation spectrometry using a Beckman LS-600 scintillation counter. Data are expressed as the arithmetic mean or median of duplicate or triplicate pools of 4 to 12 oocytes at each data point. Transport kinetics were analyzed by best-fit analysis of data points (Cricket Graph, Computer Associates) and Eadie-Hofstee transformation.

In another series the target is T2, GLUT10 A206T (Homo sapiens, UniProt O95528, A206T).
T2 construct: A full-length GLUT10 cDNA was cloned into the expression vector pCMV-Tag4a (Stratagene); expressed in transfected cells; host or cells: Xenopus laevis oocytes injected with capped mRNA
T2 sequence (O95528 1-541 A206T): T1 sequence (O95528 1-541) with A206T
As to the kind of experiment: 2-DOG uptake in Xenopus oocytes expressing GLUT10 A206T isoform. It is filed as cell-based. To be noted: pre-incubation with insulin.
Source text: as §1
(§2) Adult female Xenopus laevis were obtained from Xenopus Express (Homosassa, Fla.) and housed at 17-19° C. on a twelve-hour light/dark cycle. […]
(§3) DOG (final specific activity=0.5 Ci/mmol) (NEN Life Science Products, Inc.; American Radiochemical Company). […] Pools of oocytes were dissolved in 10% SDS, mixed with scintillation fluid, and internalized radioactivity was measured by scintillation spectrometry using a Beckman LS-600 scintillation counter. Data are expressed as the arithmetic mean or median of duplicate or triplicate pools of 4 to 12 oocytes at each data point. Transport kinetics were analyzed by best-fit analysis of data points (Cricket Graph, Computer Associates) and Eadie-Hofstee transformation. […]

Another series concerns the target T3, human GLUT4 (Homo sapiens, UniProt P14672).
T3 construct: The pcDNA3.1/GS plasmids expressing the full-length GLUT3 and GLUT4 cDNA were purchased from Invitrogen Corporation; host or cells: Xenopus laevis oocytes injected with capped mRNA
T3 sequence (P14672 1-509): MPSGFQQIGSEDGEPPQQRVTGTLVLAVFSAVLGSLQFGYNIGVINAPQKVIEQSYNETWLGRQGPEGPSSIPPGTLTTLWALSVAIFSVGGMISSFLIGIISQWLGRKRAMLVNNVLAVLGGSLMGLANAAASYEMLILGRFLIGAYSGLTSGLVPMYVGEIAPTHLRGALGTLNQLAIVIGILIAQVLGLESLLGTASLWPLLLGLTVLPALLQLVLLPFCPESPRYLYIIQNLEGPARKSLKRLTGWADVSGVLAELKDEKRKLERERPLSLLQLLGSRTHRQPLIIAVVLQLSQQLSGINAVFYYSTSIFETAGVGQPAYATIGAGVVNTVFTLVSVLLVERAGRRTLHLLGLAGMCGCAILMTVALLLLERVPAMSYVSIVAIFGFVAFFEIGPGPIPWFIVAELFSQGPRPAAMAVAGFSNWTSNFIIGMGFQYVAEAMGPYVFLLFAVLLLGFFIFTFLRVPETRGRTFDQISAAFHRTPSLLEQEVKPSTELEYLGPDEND
The series can be described thus: 2-DOG uptake in Xenopus oocytes injected with GLUT4 RNA. The format is cell-based. To be noted: pre-incubation with 100 μM insulin for 30 min, 250 μM [3H]2-DOG.
Source text: as §1, §2
DOG (final specific activity=0.5 Ci/mmol) (NEN Life Science Products, Inc.; American Radiochemical Company). […] Pools of oocytes were dissolved in 10% SDS, mixed with scintillation fluid, and internalized radioactivity was measured by scintillation spectrometry using a Beckman LS-600 scintillation counter. Data are expressed as the arithmetic mean or median of duplicate or triplicate pools of 4 to 12 oocytes at each data point. Transport kinetics were analyzed by best-fit analysis of data points (Cricket Graph, Computer Associates) and Eadie-Hofstee transformation.

The target in another series is T4, GLUT10 A28T (Homo sapiens, UniProt O95528, A287T).
T4 construct: A full-length GLUT10 cDNA was cloned into the expression vector pCMV-Tag4a (Stratagene); expressed in transfected cells; host or cells: Xenopus laevis oocytes injected with capped mRNA
T4 sequence (O95528 1-541 A287T): T1 sequence (O95528 1-541) with A287T
The series can be described thus: 2-DOG uptake in Xenopus oocytes expressing GLUT10 A28T isoform. The format is cell-based. To be noted: pre-incubation with insulin.
Source text: as §1, §2, §3

Substrate in series [1]: O=CC[C@@H](O)[C@H](O)[C@H](O)CO
As to the kind of experiment: cells, lysate or membranes. Conditions: Eadie-Hofstee analysis, pH 7.5.

The mark [2] stands for this setting: 250 μM [3H]2-DOG, 30 min at 22° C.

Where a chain is given by its changes, count along the chain named. “Also recorded” adds a separate entry of the source.

Turning to `O=CC[C@@H](O)[C@H](O)[C@H](O)CO` [2-DOG, 2-deoxy-D-glucose], the “2-DOG uptake over the water-injected controls” value on human GLUT10 (25 μM 2-DOG, 30 min at 22° C., 3 days after injection of 30 ng GLUT10 RNA) is listed as 5 fold. The “effect of competitors on [3H]2-DOG uptake” value (“effect of competitors” for short) on human GLUT10 (setting [2]) is on record as “effectively competed”. In addition, the “Vmax of 2-DOG uptake” value on human GLUT10 (GLUT10 RNA-injected oocytes, 30 min at 22° C., Eadie-Hofstee analysis) is on record as 0.85 pmol oocyte^−1 30 min^−1. Moreover, on human GLUT10 (read-out: apparent Km for 2-DOG transport, GLUT10 mRNA-injected oocytes, 30 min, Eadie-Hofstee analysis), the Km was about 300 µM.

With `O=C[C@H](O)[C@@H](O)[C@@H](O)[C@H](O)CO` [D-galactose], the “effect of competitors” value at human GLUT10 (setting [2]) was “inhibited 2-DOG uptake but less effectively; also recorded: competed”.

Consider `O=C[C@H](O)[C@@H](O)[C@H](O)[C@H](O)CO` [D-glucose], for which the “effect of competitors” value at human GLUT10 (setting [2]) is “effectively competed”.

Regarding `O=C(CO)[C@@H](O)[C@H](O)[C@H](O)CO` [fructose], on human GLUT10 (setting [2]), the “effect of competitors” value is “did not inhibit”.

In the case of `O=C(CCc1ccc(O)cc1)c1c(O)cc(O)cc1O` [phloretin], the “effect of phloretin on 2-DOG uptake” value on human GLUT10 (100 μM phloretin, 25 μM [3H]2-DOG, 30 min at 22° C.) is “inhibited”.

As for insulin, the “insulin stimulation of 2-DOG uptake activity” value in the series with GLUT10 A206T and with GLUT10 A28T was “not stimulated” each time. Also, the “insulin stimulation of 2-DOG transport” value with human GLUT4 is on record as “stimulated”; in the series with human GLUT10 (wild type GLUT10, pre-incubation with 100 μM insulin for 30 min, 250 μM [3H]2-DOG) it was “stimulated”. Moreover, the “insulin stimulation of glucose transport” value in the series with human GLUT10 (pre-incubation with insulin, oocytes injected with GLUT10 mRNA) is “approximately 2 fold”.

B1: human GLUT10 (Homo sapiens) (protein)
chain: T1 sequence (O95528 1-541)
Turning to B1, the Km in series [1] (other: GLUT10 RNA (30 ng) injected oocytes, 30 min at 22° C., corrected for water-injected background) came to 280 µM; in series [1] (other: GLUT10 mRNA-injected oocytes, 30 min, 22.0 °C) it was 300 µM.
